# pKi: −log10 of the molar value. Structures can show the parent of a compound that is named as a salt. Where two headings read alike, the source gives them in different places.
# How the values were obtained:
# human 5HT7 receptor = target: T1, human 5HT7 receptor (Homo sapiens, UniProt P34969); assay: 5-HT7 Receptor Binding Assay ([3H]LSD displacement, CHO cell membranes)
# T1 construct: purchased BioSignal Drug Discovery Technology, Montreal, Canada; host or cells: CHO cells (stably transfected), membranes
# T1 sequence (P34969 whole entry): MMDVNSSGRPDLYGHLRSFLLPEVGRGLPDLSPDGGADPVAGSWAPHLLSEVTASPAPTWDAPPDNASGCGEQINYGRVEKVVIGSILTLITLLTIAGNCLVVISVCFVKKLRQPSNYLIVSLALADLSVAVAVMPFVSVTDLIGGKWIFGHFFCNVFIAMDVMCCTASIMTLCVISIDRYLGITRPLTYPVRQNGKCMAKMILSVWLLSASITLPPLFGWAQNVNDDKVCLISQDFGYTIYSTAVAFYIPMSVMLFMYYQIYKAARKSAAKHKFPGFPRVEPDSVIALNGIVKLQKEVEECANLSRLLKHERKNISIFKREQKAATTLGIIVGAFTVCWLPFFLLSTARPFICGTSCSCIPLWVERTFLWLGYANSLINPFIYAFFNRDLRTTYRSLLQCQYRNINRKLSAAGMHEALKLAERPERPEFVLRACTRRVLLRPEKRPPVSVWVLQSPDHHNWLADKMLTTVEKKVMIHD
SMILES,melting point,other results
NCCc1c[nH]c2cc3c(cc12)C(=O)N(Cc1ccccc1)CC3 (as salt: HCl) (hydrate or solvate),262 to 263 °C,–
"NCCc1c[nH]c2cc3c(cc12)C(=O)NCC3 (as salt: salt) (hydrate or solvate) [Compound 1, 3-(2-Amino-ethyl)-1,6,7,8-tetrahydro-pyrrolo[2,3-g]isoquinolin-5-one]",82 to 86 °C,–
"NCCc1c[nH]c2cc3c(cc12)C(=O)NCC3 [Compound 1, 3-(2-Amino-ethyl)-1,6,7,8-tetrahydro-pyrrolo[2,3-g]isoquinolin-5-one]",–,pKi (human 5HT7 receptor): 7.85
"CN1CCN(C2=Nc3ccccc3Oc3ccc(Cl)cc32)CC1 [Loxapine, reference compound]",–,"pKi (human 5HT7 receptor; displacement of [3H]LSD, cloned human 5-HT7 receptor membranes from CHO cells, value with 95% confidence interval, read-out: 5-HT7 binding Ki): 7.37"

# Reference: US6432974B1, “Pyrrolo-isoquinoline and tetra-hydropyrrolo-isoquinoline derivatives and their use as mediators of the 5-HT7 receptor” (Wyeth, priority 2000, dated 2002)
